Converted amounts (≈) assume the structure as drawn.
Columns and labels:
Pseudomonas aeruginosa [1] = test: Antimicrobial activity against Pseudomonas aeruginosa assessed as zone of inhibition at 5 mg/ml; type: functional; conditions: read-out: IZ
Staphylococcus aureus [2] = test: Antimicrobial activity against Staphylococcus aureus assessed as zone of inhibition at 5 mg/ml; type: functional; conditions: read-out: IZ
Klebsiella pneumoniae [3] = test: Antimicrobial activity against Klebsiella pneumoniae assessed as zone of inhibition at 5 mg/ml; type: functional; conditions: read-out: IZ
Escherichia coli [4] = test: Antimicrobial activity against Escherichia coli assessed as zone of inhibition at 5 mg/ml; type: functional; conditions: read-out: IZ
Aspergillus flavus [5] = test: Antifungal activity against Aspergillus flavus; type: functional
Aspergillus niger [6] = test: Antifungal activity against Aspergillus niger; type: functional
Fusarium oxysporum = test: Antifungal activity against Fusarium oxysporum; type: functional
Staphylococcus aureus [7] = test: Antimicrobial activity against Staphylococcus aureus ATCC 25923 assessed as zone of inhibition at 100 ug/ml after 24 hrs by disc diffusion method; type: functional; conditions: ATCC 25923, 24 h, read-out: IZ
Klebsiella pneumoniae [8] = test: Antimicrobial activity against Klebsiella pneumoniae ATCC 700603 assessed as zone of inhibition at 100 ug/ml after 24 hrs by disc diffusion method; type: functional; conditions: ATCC 700603, 24 h, read-out: IZ
Streptococcus agalactiae = test: Antimicrobial activity against Streptococcus agalactiae 55118 assessed as zone of inhibition at 100 ug/ml after 24 hrs by disc diffusion method; type: functional; conditions: Streptococcus agalactiae, 55118, 24 h; read-out: IZ
Bacillus subtilis [9] = test: Antimicrobial activity against Bacillus subtilis; type: functional
Proteus vulgaris = test: Antimicrobial activity against Proteus vulgaris; type: functional
Salmonella typhimurium = test: Antimicrobial activity against Salmonella typhimurium; type: functional, Salmonella enterica subsp. enterica serovar Typhimurium; conditions: Salmonella enterica
Streptococcus pneumoniae = test: Antimicrobial activity against Streptococcus pneumoniae; type: functional
Proteus mirabilis = test: Antimicrobial activity against Proteus mirabilis; type: functional
Prescottella equi = test: Antimicrobial activity against Rhodococcus equi; type: functional; conditions: Rhodococcus (subgen. Prescottella) equi
Bacillus thuringiensis = test: Antimicrobial activity against Bacillus thuringiensis; type: functional
Escherichia coli [10] = test: Antimicrobial activity against Escherichia coli; type: functional
Pseudomonas aeruginosa [11] = test: Antimicrobial activity against Pseudomonas aeruginosa; type: functional
Staphylococcus aureus [12] = test: Antimicrobial activity against Staphylococcus aureus; type: functional
Bacillus cereus [13] = test: Antimicrobial activity against Bacillus cereus; type: functional
Candida albicans [14] = test: Antifungal activity against Candida albicans; type: functional
Staphylococcus aureus [15] = test: Antimicrobial activity against Staphylococcus aureus assessed as zone of inhibition at 250 ug/ml; type: functional; conditions: read-out: IZ
Bacillus cereus [16] = test: Antimicrobial activity against Bacillus cereus assessed as zone of inhibition at 250 ug/ml; type: functional; conditions: read-out: IZ
Escherichia coli [17] = test: Antimicrobial activity against Escherichia coli assessed as zone of inhibition at 250 ug/ml; type: functional; conditions: read-out: IZ
Pseudomonas aeruginosa [18] = test: Antimicrobial activity against Pseudomonas aeruginosa assessed as zone of inhibition at 250 ug/ml; type: functional; conditions: read-out: IZ
Candida albicans [19] = test: Antifungal activity against Candida albicans assessed as zone of inhibition at 250 ug/ml; type: functional; conditions: read-out: IZ
Aspergillus niger [20] = test: Antifungal activity against Aspergillus niger assessed as zone of inhibition at 250 ug/ml; type: functional; conditions: read-out: IZ
Escherichia coli [21] = test: Antimicrobial activity against Escherichia coli assessed as zone of inhibition at 250 ug/ml after 24 hrs by disk diffusion method; type: functional; conditions: read-out: IZ
Staphylococcus aureus [22] = test: Antibacterial activity against methicillin resistant Staphylococcus aureus N315 after 24 hrs by two-fold broth serial dilution method; type: functional; conditions: N315, 24 h
Bacillus subtilis [23] = test: Antibacterial activity against Bacillus subtilis ATCC 21216 after 24 hrs by two-fold broth serial dilution method; type: functional; conditions: ATCC 21216, 24 h
Micrococcus luteus = test: Antibacterial activity against Micrococcus luteus ATCC 4698 after 24 hrs by two-fold broth serial dilution method; type: functional; conditions: ATCC 4698, 24 h
Escherichia coli [24] = test: Antimicrobial activity against Escherichia coli JM 109 after 24 hrs by two-fold broth serial dilution method; type: functional; conditions: JM 109, 24 h
Pseudomonas aeruginosa [25] = test: Antimicrobial activity against Pseudomonas aeruginosa ATCC 27853 after 24 hrs by two-fold broth serial dilution method; type: functional; conditions: ATCC 27853, 24 h
Shigella dysenteriae = test: Antimicrobial activity against Shigella dysenteriae after 24 hrs by two-fold broth serial dilution method; type: functional
Candida albicans [26] = test: Antifungal activity against Candida albicans ATCC 76615 after 24 hrs; type: functional; conditions: ATCC 76615, 24 h
Cyberlindnera jadinii = test: Antifungal activity against Candida utilis after 24 hrs; type: functional; conditions: Williopsis jadinii
Aspergillus flavus [27] = test: Antifungal activity against Aspergillus flavus after 24 hrs; type: functional
Saccharomyces cerevisiae = test: Antifungal activity against Saccharomyces cerevisiae after 24 hrs; type: functional
Pichia norvegensis = test: Antifungal activity against Candida mycoderma after 24 hrs; type: functional

CCn1cc(C(=O)O)c(=O)c2cc(F)c(N3CCN(C)CC3)cc21 [PEFLOXACIN]
zone of inhibition at 5000 µg/mL (Pseudomonas aeruginosa [1]): 28 to 36 mm
zone of inhibition at 5000 µg/mL (Staphylococcus aureus [2]): 28 to 36 mm
zone of inhibition at 5000 µg/mL (Klebsiella pneumoniae [3]): 28 to 36 mm
zone of inhibition at 5000 µg/mL (Escherichia coli [4]): 28 to 36 mm

c1ccc(-n2cc(-c3nnn[nH]3)nn2)cc1
MIC (Aspergillus flavus [5]): 100 µg/mL (≈ 469 µM)
MIC (Aspergillus niger [6]): 100 µg/mL (≈ 469 µM)
MIC (Fusarium oxysporum): 100 µg/mL (≈ 469 µM)

CCCn1nnnc1Sc1c(OC)nc(N)nc1OC
zone of inhibition at 100 µg/mL (Staphylococcus aureus [7]): 24 mm
zone of inhibition at 100 µg/mL (Klebsiella pneumoniae [8]): 24 mm
zone of inhibition at 100 µg/mL (Streptococcus agalactiae): 24 mm

CO/N=C(\C(=O)N[C@@H]1C(=O)N2C(C(=O)O)=C(CSc3nc(=O)c(O)nn3C)CS[C@H]12)c1csc(N)n1 [CEFTRIAXONE]
MIC (Bacillus subtilis [9]): 0.063 to 8 µg/mL (≈ 0.114 to 14.4 µM)
MIC (Proteus vulgaris): 0.063 to 8 µg/mL (≈ 0.114 to 14.4 µM)
MIC (Salmonella typhimurium): 0.063 to 8 µg/mL (≈ 0.114 to 14.4 µM)
MIC (Streptococcus pneumoniae): 0.063 to 8 µg/mL (≈ 0.114 to 14.4 µM)
MIC (Proteus mirabilis): 0.063 to 8 µg/mL (≈ 0.114 to 14.4 µM)
MIC (Prescottella equi): 0.063 to 8 µg/mL (≈ 0.114 to 14.4 µM)
MIC (Bacillus thuringiensis): 0.063 to 8 µg/mL (≈ 0.114 to 14.4 µM)

O=[N+]([O-])c1ccc(-c2nnnn2-c2nc3ccccc3s2)cc1
MIC (Escherichia coli [10]): 50 to 100 µg/mL (≈ 154 to 308 µM)
MIC (Pseudomonas aeruginosa [11]): 50 to 100 µg/mL (≈ 154 to 308 µM)
MIC (Staphylococcus aureus [12]): 50 to 100 µg/mL (≈ 154 to 308 µM)
MIC (Bacillus cereus [13]): 50 to 100 µg/mL (≈ 154 to 308 µM)
MIC (Candida albicans [14]): 50 to 100 µg/mL (≈ 154 to 308 µM)
zone of inhibition at 250 µg/mL (Staphylococcus aureus [15]): 16 to 26 mm
zone of inhibition at 250 µg/mL (Bacillus cereus [16]): 16 to 26 mm
zone of inhibition at 250 µg/mL (Escherichia coli [17]): 16 to 26 mm
zone of inhibition at 250 µg/mL (Pseudomonas aeruginosa [18]): 16 to 26 mm
zone of inhibition at 250 µg/mL (Candida albicans [19]): 16 to 26 mm
zone of inhibition at 250 µg/mL (Aspergillus niger [20]): 16 to 26 mm
MIC (Aspergillus niger [6]): 50 to 100 µg/mL (≈ 154 to 308 µM)
zone of inhibition at 250 µg/mL (Escherichia coli [21]): 18 to 26 mm

CCCCCCn1nnnc1Sc1c(OC)nc(N)nc1OC
zone of inhibition at 100 µg/mL (Staphylococcus aureus [7]): 10 to 24 mm
zone of inhibition at 100 µg/mL (Klebsiella pneumoniae [8]): 10 to 24 mm
zone of inhibition at 100 µg/mL (Streptococcus agalactiae): 10 to 24 mm

Cc1cc(=O)oc2cc(OCC(O)Cn3cnnn3)ccc12 (stereo unspecified)
MIC (Staphylococcus aureus [22]): 8 to 512 µg/mL (≈ 26.5 to 1690 µM)
MIC (Bacillus subtilis [23]): 8 to 512 µg/mL (≈ 26.5 to 1690 µM)
MIC (Micrococcus luteus): 8 to 512 µg/mL (≈ 26.5 to 1690 µM)
MIC (Escherichia coli [24]): 8 to 512 µg/mL (≈ 26.5 to 1690 µM)
MIC (Pseudomonas aeruginosa [25]): 8 to 512 µg/mL (≈ 26.5 to 1690 µM)
MIC (Shigella dysenteriae): 8 to 512 µg/mL (≈ 26.5 to 1690 µM)
MIC (Candida albicans [26]): 8 to 512 µg/mL (≈ 26.5 to 1690 µM)
MIC (Cyberlindnera jadinii): 8 to 512 µg/mL (≈ 26.5 to 1690 µM)
MIC (Aspergillus flavus [27]): 8 to 512 µg/mL (≈ 26.5 to 1690 µM)
MIC (Saccharomyces cerevisiae): 8 to 512 µg/mL (≈ 26.5 to 1690 µM)
MIC (Pichia norvegensis): 8 to 512 µg/mL (≈ 26.5 to 1690 µM)

Cc1nnc(SCC2=C(C(=O)O)N3C(=O)[C@@H](NC(=O)Cn4cnnn4)[C@H]3SC2)s1 [CEFAZOLIN]
MIC (Bacillus subtilis [9]): 0.063 to 8 µg/mL (≈ 0.139 to 17.6 µM)
MIC (Proteus vulgaris): 0.063 to 8 µg/mL (≈ 0.139 to 17.6 µM)
MIC (Salmonella typhimurium): 0.063 to 8 µg/mL (≈ 0.139 to 17.6 µM)
MIC (Streptococcus pneumoniae): 0.063 to 8 µg/mL (≈ 0.139 to 17.6 µM)
MIC (Proteus mirabilis): 0.063 to 8 µg/mL (≈ 0.139 to 17.6 µM)
MIC (Prescottella equi): 0.063 to 8 µg/mL (≈ 0.139 to 17.6 µM)
MIC (Bacillus thuringiensis): 0.063 to 8 µg/mL (≈ 0.139 to 17.6 µM)

From ChEMBL document CHEMBL4342421, “Current scenario of tetrazole hybrids for antibacterial activity” (Eur J Med Chem, 2019)
